In brackets after ≈: the same amount, converted by molar mass. Several values for one entry are separate records, joined by “and”; a condition that tells them apart may be missing. Equal entries are not always repeated. Each block holds one compound with its values, some of them ahead of it.
Experiments:
[1] = tested on: lung carcinoma (A549) cell line; test: MTT assay against lung carcinoma (A549) cell line; type: cell-based, human; details: for IC50 values, Lung carcinoma (A549): 48 h; for IC50: Homo sapiens, A549, 48 h
Excerpt: (§1) In vitro inhibition activity of the newly synthesized series was investigated on cell viability according to the literature review described by Mohamed et al. (Mohamed et al. [2021b]). In a brief explanation of MTT assay employed herein. In vitro, toxicological MTT Kit has been used to perform an (3-[4,5-dimethylthiazole-2-yl]-2,5-diphenyltetrazolium bromide) to measure the cytotoxicity effect of a novel (3-(Furan-2-yl)pyrazol-4-yl) chalcones against A549 cell line. Lung carcinoma cell line A549 was seeded in microplate where the prepared chalcones solution were added to triplicates well. Incubation of plates was done at 37 °C for 48 h. The fresh […]. Lung cells treated with different range concentration of our series [[…]] were incubated, also untreated cells were used as a reference negative control. One percent antibiotic mixture was used, and after incubation. The positive control utilized here was 5-FU ([…]).

[2] = tested on: normal lung (Wi38) cell line; test: MTT assay against normal lung (Wi38) cell line; type: cell-based; details: Homo sapiens, WI-38, 48 h
Excerpt: [Worded in the source for another cell line; this cell line is reported under the same test.] as §1

BAX = test: Real-time PCR of BAX expression in A549 cells; type: cell-based, human; details: IC50 conc., 48 h, qPCR, untreated control = 1
Protocol: (§2) Total RNAfrom the compound 7b-, compound 7c-treated A549 cells, and untreated cells were extracted using the Qiagen RNAextraction Kit, Catalog # (74,104). 1 µg of RNAwas reverse transcribed into complementary DNA(cDNA) using High-Capacity cDNA Reverse Transcription Kit (Thermo Fisher scientific, ON, Canada). qPCR was performed using Bio RadSYBR Green qPCR master mix (Bio Rad, California, USA) in a Step One Plus Real-Time PCRSystem (Bio Rad, California, USA). The total reaction volume was 25 µL, 12.5 µL of SYBRgreen master mix, 1 µL of each primer (Bax, Bcl2, P53, CDK4) with 10 pmol/µL (Qiagen, CA, Germany), 2.5 µL of cDNA, and […] of RNAse free water. The thermal cycle of PCR started with an initial denaturation at 95 °C for 10 min, followed by 45 cycles at 94 °C for15 s, 65 °C for 30 s, and 56 °C for 30 s. The relative gene expression was determined using the method of 2^−ΔΔCtafter normalization to the expression of β-actin (Qiagen, CA, Germany) (10 pmol/µL). […]

Bcl2 = test: Real-time PCR of Bcl2 expression in A549 cells; type: cell-based, human; details: IC50 conc., 48 h, qPCR, untreated control = 1
Protocol: as §2

human caspase-9 = test: ELISA of caspase-9 in A549 cell lysates; type: cell-based; details: A549 cells, IC50 conc., 48 h, untreated control 1.49
Protocol: (§3) Elisa assay was performed to detect the concentration of human caspase-3, caspase-8, and caspase-9 in A549 cell culture lysates. The instructions were followed up according to the manuscript instructions described in the following kits: DRG® human Caspase-8 ELISA Kit, Catalogue # (EIA-4863), DRG® human Caspase-9 ELISA Kit, Catalogue # (EIA-4860), and Invitrogen human Caspase-3 Elisa Kit, Catalogue # KHO1091, respectively. All reagents, samples, and standards were prepared as described in the above ELISA kits. Briefly, the procedure was described as followed; the microwell strips were washed twice with wash buffer. A total of 100 μl of standard or samples were added to each well and incubated for 2 h at room temperature (18 to 25 °C). The microwell strips were emptied and washed three times with wash buffer. A total of 100 μl of prepared antibodyanti-rabbit-IgG-HRP) were added to each well for 1 h at room temperature. The step of washing was repeated three times and then, 100 μl of prepared TMB (tetramethyl-benzidine) substrate solution was pipetted to all wells and incubated for 10 min at room temperature. […] The absorbance of each microwell was read immediately on a spectrophotometer at a wavelength of 450 nm. The concentrations of the unknown samples and controls were determined from the standard curve which was plotted using curve fitting software.

A549 cells [3] = test: Flow-cytometric analysis of cell cycle (PI); type: cell-based, human; details: IC50 conc., 48 h
Protocol: (§4) 10^6 of A549 cells were cultured in 60-mm Petri dishes for 24 h and then treated with compound 7batIC50concentrationfor 48 h. The untreated A549 cells were used as a negative control. After 48 h of incubation, A549 cells were centrifuged at1000 rpm for 5 min at 4 °C. The cells pellet were washed in phosphate-buffered saline (PBS) and then centrifuged at 1000 rpm for another 5 min. After discarding the supeRNAtant, the cells were collected in a single cell suspension and fixed in 70% ethanol on ice overnight. After the fixation step, cells were washed with 1 ml 1 × PBS. Finally, the cells pellet was incubated with a 200 µl 1 × propidium iodide (PI) mixture at room temperature in the dark for 30 min. Then, cells were subjected to an Epics XL-MCL flow cytometer (Beckman Coulter, Miami, FL) for DNA content analysis. Cells distribution at different phases was analysed by Multicycle software (Phoenix Flow Systems, San Diego, CA). Annexin V-FITC kit catalogue number (#K101-25) was used to detect the percentage of the apoptotic cells. About 10^6 of A549 cells were collected by centrifugation. Then, cells were washed in 500 µl of 1 × PBS. The cells were collected by centrifugation and then resuspended in the annexin V incubation reagent. The annexin V incubation reagent comprising of 10 μL binding buffer (10X) + 10 μL propidium iodide + 1 μL annexin V-FITC + 79 μL deionized water. The cells in 100 μL annexin V incubation reagent was incubated in dark at room temperature for 15 min (Ali et al. [2017]). Finally, the percentage of apoptotic cells was analyzed by flow cytometry using FITC signal detector (usually FL-1) and PI staining by the phycoerythrin emission signal detector (usually FL-2).

A549 cells [4] = test: Flow-cytometric analysis of apoptosis (Annexin V-FITC/PI); type: cell-based, human; details: IC50 conc., 48 h
Protocol: as §4

human caspase-8 = test: ELISA of caspase-8 in A549 cell lysates; type: cell-based; details: A549 cells, IC50 conc., 48 h, untreated control 0.375
Protocol: as §3

human caspase-3 = test: ELISA of caspase-3 in A549 cell lysates; type: cell-based; details: A549 cells, IC50 conc., 48 h, untreated control 53.69
Protocol: as §3

CDK4 = test: Real-time PCR of CDK4 expression in A549 cells; type: cell-based, human; details: IC50 conc., 48 h, qPCR, untreated control = 1
Protocol: as §2

P53 = test: Real-time PCR of P53 expression in A549 cells; type: cell-based, human; details: IC50 conc., 48 h, qPCR, untreated control = 1
Protocol: as §2

Compound: O=c1[nH]cc(F)c(=O)[nH]1 [5-FU, reference compound]
IC50 values, Lung carcinoma (A549) [1]: 147.29 µg/mL (≈ 1130 µM)

Compound: Cc1ccc(-c2cn(-c3ccccc3)nc2/C=C/C(=O)c2c(-c3ccco3)nn(-c3ccc([N+](=O)[O-])cc3)c2C)cc1 [7e, (E)-1-(3-(Furan-2-yl)-5-methyl-1-(4-nitrophenyl)-1H-pyrazol-4-yl)-3-(1-phenyl-4-(p-tolyl)-1H-pyrazol-3-yl)prop-2-en-1-one]
IC50 [2]: 296 µg/mL (≈ 532 µM)
melting point: 248 to 250 °C
IC50 [1]: 217 µg/mL (≈ 391 µM)

Compound: COc1ccc(-c2cn(-c3ccccc3)nc2/C=C/C(=O)c2c(-c3ccco3)nn(-c3ccc([N+](=O)[O-])cc3)c2C)cc1 [7f, (E)-1-(3-(Furan-2-yl)-5-methyl-1-(4-nitrophenyl)-1H-pyrazol-4-yl)-3-(4-(4-methoxyphenyl)-1-phenyl-1H-pyrazol-3-yl)prop-2-en-1-one]
IC50 [2]: 296 µg/mL (≈ 518 µM)
melting point: 232 to 234 °C
IC50 [1]: 238 µg/mL (≈ 416 µM)

Compound: Cc1c(C(=O)/C=C/c2nn(-c3ccccc3)cc2-c2ccc([N+](=O)[O-])cc2)c(-c2ccco2)nn1-c1ccc([N+](=O)[O-])cc1 [7h, (E)-1-(3-(Furan-2-yl)-5-methyl-1-(4-nitrophenyl)-1H-pyrazol-4-yl)-3-(4-(4-nitrophenyl)-1-phenyl-1H-pyrazol-3-yl)prop-2-en-1-one]
IC50 [2]: 224 µg/mL (≈ 382 µM)
melting point: 242 °C
IC50 [1]: 211 µg/mL (≈ 360 µM)

Second part, led by results:

melting point: 138 to 140 °C
IC50 [1]: 42.7 µg/mL (≈ 110 µM)
Compound: Cc1c(C(=O)/C=C/c2ccco2)c(-c2ccco2)nn1-c1ccc([N+](=O)[O-])cc1 [7a, (E)-3-(Furan-2-yl)-1-(3-(furan-2-yl)-5-methyl-1-(4-nitrophenyl)-1H-pyrazol-4-yl)prop-2-en-1-one]
IC50 [2]: 68 µg/mL (≈ 175 µM)

melting point: 142 to 144 °C
IC50 values, Lung carcinoma (A549) [1]: 20.05 µg/mL (≈ 49.5 µM)
IC50 [1]: 20 µg/mL (≈ 49.3 µM)
Compound: Cc1c(C(=O)/C=C/c2cccs2)c(-c2ccco2)nn1-c1ccc([N+](=O)[O-])cc1 [7b, (E)-1-(3-(Furan-2-yl)-5-methyl-1-(4-nitrophenyl)-1H-pyrazol-4-yl)-3-(thiophen-2-yl)prop-2-en-1-one]
Gene expression (fold change/ β-actin), BAX (BAX): 7.93 fold change
Gene expression (fold change/ β-actin), Bcl2 (Bcl2): 0.44 fold change
Enzyme activity ± SD, Caspase 9 (human caspase-9): 15.76 ± 0.06 pg/mL
Cell cycle arrest (phase) (A549 cells [3]): cell cycle arrest at G0/G1 and S phases
G2/M % (DNA content) (A549 cells [3]; untreated control 15.63): 4.21%
S % (DNA content) (A549 cells [3]; untreated control 37.15): 43.42%
G0/G1% (DNA content) (A549 cells [3]; untreated control 47.22): 52.37%
Apoptosis % % Late (A549 cells [4]; untreated control 0.11): 21.24%
Apoptosis % % Early (A549 cells [4]; untreated control 0.34): 3.69%
Necrosis% (A549 cells [4]; untreated control 1.26): 17.23%
Apoptosis % %Total (A549 cells [4]; untreated control 1.71): 42.16%
IC50 [2]: 108 µg/mL (≈ 267 µM)
Enzyme activity ± SD, Caspase 8 (human caspase-8): 1.575 ± 0.05 pg/mL
Enzyme activity ± SD, Caspase 3 (human caspase-3): 495.4 pg/mL and 495.4 ± 6.52 pg/mL
Gene expression (fold change/ β-actin), CDK4 (CDK4): 0.39 fold change
Gene expression (fold change/ β-actin), P53 (P53): 4.69 fold change

melting point: 198 to 200 °C
IC50 [1]: 13.9 µg/mL (≈ 34.6 µM)
Compound: Cc1c(C(=O)/C=C/c2ccncc2)c(-c2ccco2)nn1-c1ccc([N+](=O)[O-])cc1 [7c, (E)-1-(3-(Furan-2-yl)-5-methyl-1-(4-nitrophenyl)-1H-pyrazol-4-yl)-3-(pyridin-4-yl)prop-2-en-1-one]
Gene expression (fold change/ β-actin), BAX (BAX): 4.78 fold change
Gene expression (fold change/ β-actin), Bcl2 (Bcl2): 0.61 fold change
Enzyme activity ± SD, Caspase 9 (human caspase-9): 11.2 pg/mL and 11.2 ± 0.52 pg/mL
IC50 [2]: 18.2 µg/mL (≈ 45.5 µM)
Enzyme activity ± SD, Caspase 8 (human caspase-8): 1.042 pg/mL and 1.042 ± 0.02 pg/mL
Enzyme activity ± SD, Caspase 3 (human caspase-3): 377.2 pg/mL and 377.2 ± 6.04 pg/mL
Gene expression (fold change/ β-actin), CDK4 (CDK4): 0.54 fold change
Gene expression (fold change/ β-actin), P53 (P53): 2.32 fold change

melting point: 168 to 170 °C
IC50 values, Lung carcinoma (A549) [1]: 76.52 µg/mL (≈ 141 µM)
IC50 [1]: 76.5 µg/mL (≈ 141 µM)
Compound: Cc1c(C(=O)/C=C/c2nn(-c3ccccc3)cc2-c2ccccc2)c(-c2ccco2)nn1-c1ccc([N+](=O)[O-])cc1 [7d, (E)-3-(1,4-Diphenyl-1H-pyrazol-3-yl)-1-(3-(furan-2-yl)-5-methyl-1-(4-nitrophenyl)-1H-pyrazol-4-yl)prop-2-en-1-one]
IC50 [2]: 261 µg/mL (≈ 483 µM)

melting point: 242 to 244 °C
IC50 [1]: 251 µg/mL (≈ 437 µM)
Compound: Cc1c(C(=O)/C=C/c2nn(-c3ccccc3)cc2-c2ccc(Cl)cc2)c(-c2ccco2)nn1-c1ccc([N+](=O)[O-])cc1 [7g, (E)-3-(4-(4-Chlorophenyl)-1-phenyl-1H-pyrazol-3-yl)-1-(3-(furan-2-yl)-5-methyl-1-(4-nitrophenyl)-1H-pyrazol-4-yl)prop-2-en-1-one]
IC50 [2]: 379 µg/mL (≈ 658 µM)

From article PMC10042774, “Theoretical and molecular mechanistic investigations of novel (3-(furan-2-yl)pyrazol-4-yl) chalcones against lung carcinoma cell line (A549)” (Naunyn-Schmiedeberg's Archives of Pharmacology, 2022)
